Values quoted from earlier work as cited in patent US20100178364A1, “Dietary supplements against latent foreign DNA” (priority 2009, published 2010).
Where two headings read alike, the source gives them in different places.

Experiments:
[1] = test system: EBV immediate-early protein Rta
[2] = test system: LT1/LT2 promoter; conditions: BJAB cells, GA-treated vs untreated
[3] = test system: KSHV-positive B cells
[4] = tested levels (3 and 4 mM)
[5] = test system: LANA-1, v-cyclin, and v-FLIP proteins; conditions: KSHV positive cells (BCBL-1, BC-3, BC-1) treated 2, 3, 6 days; effect reversible
[6] = test system: CMV

O=C(O[C@@H]1Cc2c(O)cc(O)cc2O[C@@H]1c1cc(O)c(O)c(O)c1)c1cc(O)c(O)c(O)c1 [EGCG, Epigallocatechin gallate]
percentage of cells expressing Rta ([1]; TSA-treated P3HR1 cells, 100 mM EGCG): 0.5%
percentage of cells expressing Rta ([1]; TSA-treated P3HR1 cells, EGCG): 9.8%

CC1(C)[C@@H](O[C@H]2O[C@H](C(=O)O)[C@@H](O)[C@H](O)[C@H]2O[C@@H]2O[C@H](C(=O)O)[C@@H](O)[C@H](O)[C@H]2O)CC[C@]2(C)[C@H]3C(=O)C=C4[C@@H]5C[C@@](C)(C(=O)O)CC[C@]5(C)CC[C@@]4(C)[C@]3(C)CC[C@@H]12 [GA, glycyrrhizic acid]
LT1/LT2 promoter activity (luciferase expression) [2]: does not affect the LT1/LT2 promoter activity
disruption of mitochondrial membranes / DNA condensation ([3]; uninfected B cells): no disruptions of their mitochondrial membranes or DNA condensation
toxicity [4]: not being toxic at the tested levels
LANA-1 protein expression [5]: decreased

CCCCCCCCCCCCCC(=O)O[C@@H]1[C@@H](C)[C@@]2(O)[C@@H](C=C(CO)C[C@]3(O)C(=O)C(C)=C[C@@H]23)[C@@H]2C(C)(C)[C@]12OC(C)=O [TPA, 12-O-tetradecanoyl-phorbol-13-acetate, reference compound]
disruption of mitochondrial membranes / DNA condensation ([3]; TPA treatment (latent to lytic switch)): did not disrupt the mitochondrial membranes or caused DNA condensation

CC(/C=C/C(=O)NO)=C\[C@@H](C)C(=O)c1ccc(N(C)C)cc1 [TSA, reference compound]
percentage of cells expressing Rta ([1]; P3HR1 cells after TSA alone (lytic cycle activator)): 23.4%

C[C@H]1[C@H](OC(=O)CCC(=O)O)O[C@@H]2O[C@@]3(C)CC[C@H]4[C@H](C)CC[C@@H]1[C@@]24OO3 [artesunate]
viral decay T ½ ([6]; CMV load kinetics during artesunate treatment, oral 100 mg/day): 0.9 to 1.9 days
hematopoiesis ([6]; within 10 days): improved

Nc1nc(O)c2ncn(COC(CO)CO)c2n1 [ganciclovir]
decrease of viral DNA load ([6]; by day 7 of treatment, one patient): 1 log
